IC50 data for 19 compounds are collected here from patent US12410161B2, “Tetrahydrobenzo-quinoline sulfonamides derivative compounds” (UCB Biopharma SRL, priority 2019, dated 2025).

In this test the target is T1, IgE-Tb binding to soluble IgE receptor FcεRIα-Y131A-AF488 (Homo sapiens, UniProt P0DOX4, N265Q/N371Q).
T1 construct: 86 nmoles of IgE-Fc(N265Q, N371Q) (Young et al., 1995)
As to the kind of experiment: In vitro FRET assay of IgE-Tb binding to FcεRIα receptor (protocol for most examples, 2 hours incubation). As to conditions: 5 nM IgE-Tb, 25 nM FcεRIα-Y131A-AF488; incubated 2 hours at room temperature; read-out: FRET IC50 range. As to the method: In vitro Biochemical Assay: Protocol for preparation of IgE-Tb reagent 86 nmoles of […]) (Young et al., 1995) at 172 μM in 100 mM NaHCO3, pH 9.5 was added to 1 mg of LanthaScreenTM Amine Reactive Tb Chelate (ThermoFisher catalogue number PV3583) and incubated for 16 hours at 20° C. The material was then buffer exchanged into Phosphate Buffered Saline (being, 137 mM NaCl, 2.7 mM KCl, 10 mM Na2HPO4, 1.8 mM K2HPO4, pH 7.4) and the material quantified and the degree of Tb conjugation determined by measuring the absorption at 280 nm and 343 nm. The integrity of the conjugated material was determined by analytical size exclusion chromatography on a 5200 HR 10×300 column (GE Healthcare). Typical conjugation ratios were 4:1 Tb:IgE-Fc. • Young R J., Owens, […]., Chan C M W., Shi J., Hide […]., Henry A J., Sutton B J., and Gould H J (1995) Protein Engineering 8:193-199 Protocol for preparation of […] reagent […] Oxidation was quenched with the addition of 40 μl of ethanediol and incubation for 60 minutes at 22° C. The protein was buffer exchanged in to conjugation buffer (50 mM NaHCO3, 150 mM NaCl, pH 9.5) and concentrated to 750 μM. 175 nmoles of protein was added to 1 mg of Alexa FluorTM 488 hydrazide (Invitrogen) and incubated for 16 hours at 22° C. […] The protein was buffer exchanged into Phosphate Buffered Saline (being, 137 mM NaCl, 2.7 mM KCl, 10 mM Na2HPO4, 1.8 mM K2HPO4, pH 7.4) and the material quantified and the degree of Alexa FluorTM 488 conjugation determined by measuring the absorption at 280 nm and 495 nm. The integrity of the conjugated material was determined by analytical size exclusion chromatography on a 5200 HR 10×300 column (GE Healthcare). Typical conjugation ratios were 2:1 Alexa FluorTM488: sFcεR1α • Cook J P D., Henry […]., Owens R J., Sutton B J., and Gould H J (1997) Biochemistry 36:15579-15588 The aim was to measure binding of IgE-Tb to receptor, and the inhibition thereof by compounds, using an in vitro Fluorescence Resonance Energy Transfer (FRET) Assay. Reagents FRET reagents used were IgE labelled with Terbium (FRET donor), and soluble IgE receptor FcεRIα with a Y131A mutation, labelled with Alexa FluorTM 488 (FRET acceptor). Unlabelled FcεRIα was also used to generate a background control. The assay buffer consisted of 20 mM Tris pH7.2, 150 mM NaCl, and 0.002% Tween, 1% DMSO. Assay Reaction For most of the examples the assay was conducted according to the following: Each assay reaction was conducted in a volume of 25 μl in a 384-well half-volume plate. 10 point compound serial dilutions (3-fold) were generated in DMSO at a concentration of ×50 that of the final assay concentration (FAC). Compound solutions were then prepared by IgE-Tb diluting 10-fold in assay buffer. For the assay, 5 μl of diluted compound was added to 10 μl of IgE-Tb, followed by addition of 10111 FcεRIα-Y131A-AF488. FRET reagents FACs were 5 nM IgE-Tb, 25 nM FcεRIα-Y131A-AF488. Usually the top FAC of compound in the assay was 10 μM. The final DMSO concentration was 2%. The minimum signal (MIN) was measured by adding 5 μl unlabelled FcεRIα at 1 μM (FAC=200 nM) to the FRET reagents. The maximum FRET signal (MAX) was measured in wells containing FRET reagents but no compound. The assay was incubated for 2 hours at room temperature, protected from light and evaporation, and with gentle agitation. FRET Measurement Measurement of FRET for each well was carried out by exciting at 330 nm and measuring emission at 495/520 nm using an Envision plate reader (Perkin Elmer). FRET ratio was calculated as follows: Emission at 520/Emission at 495×1000. The FRET ratio was used for the data analysis. Data Analysis Z' was calculated as follows (σ=standard deviation and μ=mean): 1-((3×σMAX)+(3×σMIN))/(μMAX-/μMIN) Z' above 0.5 was considered a good assay. Background signal (MIN) was subtracted from all wells. Using the background subtracted values, the percent inhibition by compound in each test-well was calculated as follows: 100-Test-well FRET ratio/MAX FRET ratio×100. […]

T1 sequence (P0DOX4 224-547 N265Q/N371Q limits assumed): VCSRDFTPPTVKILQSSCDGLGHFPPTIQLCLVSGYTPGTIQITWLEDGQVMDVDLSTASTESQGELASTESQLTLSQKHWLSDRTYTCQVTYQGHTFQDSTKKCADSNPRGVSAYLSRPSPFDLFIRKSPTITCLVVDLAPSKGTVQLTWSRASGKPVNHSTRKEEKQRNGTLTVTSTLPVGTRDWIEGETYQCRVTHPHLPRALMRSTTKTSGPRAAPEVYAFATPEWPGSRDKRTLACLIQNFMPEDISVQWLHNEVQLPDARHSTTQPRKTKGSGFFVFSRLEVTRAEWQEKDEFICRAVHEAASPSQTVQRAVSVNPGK

With `Cc1cc(Nc2nncn2C2CCc3cc4cnc(C5CC5)cc4c(S(=O)(=O)NCC(C)(C)F)c3C2)n(C)n1` (stereo not shown) [Example 2, 3-cyclopropyl-7-[3-[(2,5-dimethylpyrazol-3-yl)amino]-1,2,4-triazol-4-yl]-N-(2-fluoro-2-methylpropyl)-6,7,8,9-tetrahydrobenzo[g]isoquinoline-5-sulfonamide], the IC50 is 100 to 1000 nM.
As to `Cc1ccc(N/C(=N/C#N)NC2CCc3cc4cnc(C5CC5)cc4c(S(=O)(=O)NCC(C)(C)F)c3C2)cc1` (stereo not shown) [Example 3, 2-Cyano-1-[3-cyclopropyl-5-[(2-fluoro-2-methyl-propyl)sulfamoyl]-6,7,8,9-tetrahydrobenzo[g]isoquinolin-7-yl]-3-(p-tolyl)guanidine], the IC50 lay in the range of 100 to 1000 nM.
On to `Cc1nnc(-c2ccc(NC3CCc4cc5cnc(C6CC6)cc5c(S(=O)(=O)NCC(C)(C)F)c4C3)cn2)o1` (stereo not shown) [Example 4, 3-cyclopropyl-N-(2-fluoro-2-methylpropyl)-7-[[6-(5-methyl-1,3,4-oxadiazol-2-yl)pyridin-3-yl]amino]-6,7,8,9-tetrahydrobenzo[g]isoquinoline-5-sulfonamide], for which the IC50 lay within 100 to 1000 nM.
As to `CC(C)CNS(=O)(=O)c1c2c(cc3cnc(C4CC4)cc13)CCC(C(=O)NCC(C)(C)C)C2` (stereo not shown) [Example 5, 3-cyclopropyl-N-(2,2-dimethylpropyl)-5-(2-methylpropylsulfamoyl)-6,7,8,9-tetrahydrobenzo[g]isoquinoline-7-carboxamide], the IC50 is 50 to 100 nM.
Then `CC(C)CNS(=O)(=O)c1c2c(cc3cnc(C4CC4)cc13)CC(C(=O)NCC(C)(C)C)CC2` (stereo not shown) [Example 6, 3-cyclopropyl-N-(2,2-dimethylpropyl)-5-(2-methylpropylsulfamoyl)-6,7,8,9-tetrahydrobenzo[g]isoquinoline-8-carboxamide], with 100 to 2000 nM.
Take `CC(C)CNS(=O)(=O)c1c2c(cc3cnc(C4CC4)cc13)CC(C(=O)NCc1ccccc1)CC2` (stereo not shown) [Example 7, N-benzyl-3-cyclopropyl-5-(2-methylpropylsulfamoyl)-6,7,8,9-tetrahydrobenzo[g]isoquinoline-8-carboxamide]: the IC50 fell in the range of 100 to 1000 nM.
Regarding `CC(C)CNS(=O)(=O)c1c2c(cc3cnc(C4CC4)cc13)CCC(C(=O)NCc1ccccc1)C2` (stereo not shown) [Example 8, N-benzyl-3-cyclopropyl-5-(2-methylpropylsulfamoyl)-6,7,8,9-tetrahydrobenzo[g]isoquinoline-7-carboxamide], the IC50 fell in the range of 1 to 50 nM.
For the compound `Cc1ccc2c(C(=O)NC3CCc4cc5cnc(C6CC6)cc5c(S(=O)(=O)NCC(C)C)c4C3)c[nH]c2c1` (stereo not shown) [Example 11, N-[3-cyclopropyl-5-(2-methylpropylsulfamoyl)-6,7,8,9-tetrahydrobenzo[g]isoquinolin-7-yl]-6-methyl-1H-indole-3-carboxamide], the IC50 is 100 to 1000 nM.
With `Cc1cc(-n2cnnc2NC2CCc3cc4cnc(C5CC5)cc4c(S(=O)(=O)NCC(C)C)c3C2)n(C)n1` (stereo not shown) [Example 12, 3-cyclopropyl-7-[[4-(2,5-dimethylpyrazol-3-yl)-1,2,4-triazol-3-yl]amino]-N-(2-methylpropyl)-6,7,8,9-tetrahydrobenzo[g]isoquinoline-5-sulfonamide], the IC50 was in the range of 100 to 1000 nM.
On to `Cc1cc(Nc2nncn2C2CCc3cc4cnc(C5CC5)cc4c(S(=O)(=O)NCC(C)C)c3C2)n(C)n1` (stereo not shown) [Example 13, 3-cyclopropyl-7-[3-[(2,5-dimethylpyrazol-3-yl)amino]-1,2,4-triazol-4-yl]-N-(2-methylpropyl)-6,7,8,9-tetrahydrobenzo[g]isoquinoline-5-sulfonamide], for which the IC50 was 1 to 50 nM.
Then `CC(C)CNS(=O)(=O)c1c2c(cc3cnc(C4CC4)cc13)CCC(n1cnnc1Nc1cccnc1)C2` (stereo not shown) [Example 14, 3-cyclopropyl-N-(2-methylpropyl)-7-[3-(pyridin-3-ylamino)-1,2,4-triazol-4-yl]-6,7,8,9-tetrahydrobenzo[g]isoquinoline-5-sulfonamide], with 1 to 50 nM.
Take `CC(C)CNS(=O)(=O)c1c2c(cc3cnc(C4CC4)cc13)CCC(Nc1nncn1-c1cccnc1)C2` (stereo not shown) [Example 15, 3-cyclopropyl-N-(2-methylpropyl)-7-[(4-pyridin-3-yl-1,2,4-triazol-3-yl)amino]-6,7,8,9-tetrahydrobenzo[g]isoquinoline-5-sulfonamide]: the IC50 lay within 100 to 1000 nM.
In the case of `CC(C)CNS(=O)(=O)c1c2c(cc3cnc(C4CC4)cc13)CCC(n1cnnc1NCC1CC1)C2` (stereo not shown) [Example 16, 3-cyclopropyl-7-[3-(cyclopropylmethylamino)-1,2,4-triazol-4-yl]-N-(2-methylpropyl)-6,7,8,9-tetrahydrobenzo[g]isoquinoline-5-sulfonamide], the 50% inhibitory concentration (IC50) lay within 1 to 50 nM.
For `Cc1nnc(-c2ccc(N[C@@H]3CCc4cc5cnc(C6CC6)cc5c(S(=O)(=O)NCC(C)C)c4C3)cn2)o1` [Example 17, (7R)-3-cyclopropyl-7-[[6-(5-methyl-1,3,4-oxadiazol-2-yl)pyridin-3-yl]amino]-N-(2-methylpropyl)-6,7,8,9-tetrahydrobenzo[g]isoquinoline-5-sulfonamide], the IC50 lay within 100 to 1000 nM.
In the case of `Cc1nnc(-c2ccc(N[C@H]3CCc4cc5cnc(C6CC6)cc5c(S(=O)(=O)NCC(C)C)c4C3)cn2)o1` [Example 18, (7S)-3-cyclopropyl-7-[[6-(5-methyl-1,3,4-oxadiazol-2-yl)pyridin-3-yl]amino]-N-(2-methylpropyl)-6,7,8,9-tetrahydrobenzo[g]isoquinoline-5-sulfonamide], the IC50 was 50 to 100 nM.
Turning to `CCNc1c(NC2CCc3cc4cnc(C5CC5)cc4c(S(=O)(=O)NCC(C)C)c3C2)c(=O)c1=O` (stereo not shown) [Example 19, 3-cyclopropyl-7-[[2-(ethylamino)-3,4-dioxocyclobuten-1-yl]amino]-N-(2-methylpropyl)-6,7,8,9-tetrahydrobenzo[g]isoquinoline-5-sulfonamide], the IC50 lay in the range of 1 to 50 nM.
For `Cc1cc(-n2ccnc2NC2CCc3cc4cnc(C5CC5)cc4c(S(=O)(=O)NCC(C)C)c3C2)n(C)n1` (stereo not shown) [Example 20, 3-cyclopropyl-74(1-(2,5-dimethylpyrazol-3-yl)imidazol-2-yl]aminol-N-(2-methylpropyl)-6,7,8,9-tetrahydrobenzo[g]isoquinoline-5-sulfonamide], the IC50 lay within 100 to 1000 nM.
For the compound `CC(C)CNS(=O)(=O)c1c2c(cc3cnc(C4CC4)cc13)CCC(c1ncc(-c3cccnc3)[nH]1)C2` (stereo not shown) [Example 21, 3-cyclopropyl-N-(2-methylpropyl)-7-(5-pyridin-3-yl-1H-imidazol-2-yl)-6,7,8,9-tetrahydrobenzo[g]isoquinoline-5-sulfonamide], the IC50 is 1 to 50 nM.
As for `CC(C)CNS(=O)(=O)c1c2c(cc3cnc(C4CC4)cc13)CC(c1ncc(-c3cccnc3)[nH]1)CC2` (stereo not shown) [Example 22, 3-cyclopropyl-N-(2-methylpropyl)-8-(5-pyridin-3-yl-1H-imidazol-2-yl)-6,7,8,9-tetrahydrobenzo[g]isoquinoline-5-sulfonamide], the IC50 fell in the range of 100 to 1000 nM.

The term IC50 denotes the concentration needed to halve the response being measured.
